According to patent US7910065B2, “Reaction sensing in living cells” (The Charles Stark Draper Laboratory, Inc., priority 2005, dated 2011):

What was measured:
[1] = test system: wild type (WT) yeast containing the ERG2; assay: Optical sodium and potassium ion sensor monitoring of yeast cells stimulated with a HERG inhibitor (HERG compatibility screen), wild type; conditions: FIG. 6
Description: (§1) The sensors of the present invention are suited to many different types of assays, or for the detection of compounds. In one exemplary application, a model cell system is used to screen for HERG compatibility. HERG (human ether-a-go-go) channels are implicated in the abnormal heart rhythms associated with Long QT Syndrome. It is believed that many compounds can block these channels and cause prolongation of the beat cycle of the heart. This abnormal rhythm can cause arrhythmia and can even lead to death. Accordingly, it is important that all drugs, regardless of therapeutic target, be screened for HERG compatibility.
(§2) Much is known genetically about yeast, and gene knock-outs are commercially available, allowing for the screening of two types of yeast: the wild type (WT) containing the ERG2, and one mutated to knock-out the ERG2 gene.
(§3) This example utilizes two cell types and two types of sensors, providing four different data signals, and the approach can be extended to an arbitrary number of sensors and cell types. Similarly, tissue can be used instead of culture.

[2] = test system: yeast mutated to knock-out the ERG2 gene; assay: Optical sodium and potassium ion sensor monitoring of yeast cells stimulated with a HERG inhibitor (HERG compatibility screen), ERG2 knock-out; conditions: FIG. 6
Description: as §1, §2, §3

In the case of `O=C(CCCN1CCC(O)(c2ccc(Cl)cc2)CC1)c1ccc(F)cc1` [Haloperidol], the “change in potassium upon stimulation of the cells” value ([1]; potassium sensor) is reported as “a change is observed”, the “change in sodium upon stimulation of the cells” value ([1]; sodium sensor) is reported as “a change is observed” and the “response in potassium upon stimulation of the cells” value ([2]; potassium sensor) is reported as “no response”. The “response in sodium upon stimulation of the cells” value ([2]; sodium sensor) was “no response”.
